Laboratory results from patent US20240058344A1, “METHODS OF TREATING NEURODEGENERATIVE DISORDERS AND STAT3-LINKED CANCERS USING SUPPRESSORS OF ELECTRON LEAK” (Cornell University, priority 2020, published 2024).

Legend:
[1] = test system: primary astrocytes; assay: Intracellular ATP levels in primary astrocytes; assay type: cell-based
Source text: Antimycin A and myxothiazol were used as positive controls to inhibit mitochondrial respiration and ATP production. n=3 wells per condition. ***p<0.001 vs. vehicle, mixed-effects model with Dunnett's multiple comparisons test.

[2] = test system: astrocytes; assay: Oxygen consumption rates (mitochondrial respiration) in astrocytes; assay type: cell-based
Source text: Oxygen consumption rates (OCR) and maximal consumption rates are shown for indicated S3QEL2 concentrations and time points. Antimycin and rotenone were used as positive controls to inhibit mitochondrial respiration. ***p<0.001 vs. vehicle, two-way repeated measures ANOVA with Dunnett's multiple comparisons test.

Compound	Intracellular ATP levels [1]	Mitochondrial respiration (oxygen consumption rates, OCR) [2]
CO/C(=C/C(N)=O)[C@H](C)[C@H](/C=C/c1csc(-c2csc([C@@H](C)/C=C/C=C/C(C)C)n2)n1)OC [myxothiazol]	greatly reduce	–
C=C(C)[C@H]1Cc2c(ccc3c2O[C@@H]2COc4cc(OC)c(OC)cc4[C@@H]2C3=O)O1 [rotenone]	–	greatly reduce
antimycin A	greatly reduce	greatly reduce
